Assays:
ROC1-CUL1 = ROC1-CUL1 (Homo sapiens (Human), UniProt Q13616); test: Cullin-32P-Ub elongation assay with ROC1-CUL1; assay type: biochemical; conditions: as much as 150 μM
ROC1-CUL4A CTD [1] = molecular target: ROC1-CUL4A CTD (Homo sapiens (Human), UniProt Q13619); test: Ligand binding by Micro-Scale Thermophoresis (MST); conditions: MST
Method: (§1) E3 ligase complex (˜2 nmol) was labeled with fluorescent dye using Monolith NT Protein Labeling Kit Red-NHS (Nanotemper) in the presence of 20 mM MES pH 6.0 and 150 mM NaCl. Excess dye was removed using the included gravity flow column and eluted in storage buffer containing 20 mM Tris-HCl, pH 7.4, 150 mM NaCl, and 10% glycerol. The fluorescent E3 complex (˜0.01-0.06 μM) was mixed with increasing amount of compound in a buffer (20 μl) that contains phosphate-buffered saline, 0.1% TWEEN-20 and 2% prionex. Following incubation at room temperature for 30 min, the reaction mixture loaded into premium coated capillaries and analyzed in the Monolith NT.115 machine (Nanotemper). Thermophoresis was recorded for each sample and binding curve was generated and Kd was calculated using the included software. For reactions where significant ligand specific fluorescence quenching occurred (verified by manufacturer's SDS Denaturation-test protocol), the initial fluorescence quenching data was used directly to calculate the binding curve and Kd.

ROC1-CUL4A CTD [2] = test: Ligand binding by Micro-Scale Thermophoresis (MST); parameters: species or system human; conditions: ratio of Kd
Method: as §1

Nedd8-ROC1-CUL1 = Nedd8-ROC1-CUL1 (Homo sapiens (Human), UniProt Q13616); test: Ub chain assembly measured by Coomassie stain; assay type: biochemical
Method: (§2) Reaction mixture contained 2 mM ATP, 10 mM MgCl2, 0.01 μg/μl of GST-E1 (Ub), 0.01 μg/μl of Cdc34, 0.1 μg/μl of Nedd8-ROC1-CUL1 or Nedd8-ROC1-CUL4A, and 1 μg/μl of Ub. Where indicated, DMSO and compound were added. The reaction was incubated at 37° C. for 60 min. Following separation of reaction products by SDS-PAGE, proteins were visualized by Coomassie stain.

Nedd8-ROC1-CUL4A = Nedd8-ROC1-CUL4A (Homo sapiens (Human), UniProt Q13619); test: Ub chain assembly measured by Coomassie stain; assay type: biochemical; conditions: 10 μM
Method: as §2

ROC1-CUL2 = ROC1-CUL2 (Homo sapiens (Human), UniProt Q13617); test: Gel-based di-Ub synthesis; assay type: biochemical; conditions: up to 150 μM
ROC1-CUL3 = ROC1-CUL3 (Homo sapiens (Human), UniProt Q13618); test: Gel-based di-Ub synthesis; assay type: biochemical; conditions: up to 150 μM
H1299 = test: Apoptosis, Annexin V flow cytometry; assay type: cell-based; conditions: Homo sapiens, NCI-H1299; H1299, Lung
How it was run: (§3)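 5×10^4 cells were seeded 24 h before treatment, then cultured with compound for 48 h. Pelleted cells were washed in Annexin V binding buffer (HEPES pH 7.4, with CaCl2) and stained in the dark with Annexin V-FITC (2 μg/ml) for 5 min. Apoptosis was read by flow cytometry.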

K562 = test: Apoptosis, Annexin V flow cytometry; assay type: cell-based; conditions: Homo sapiens; K562, CML
How it was run: as §3

MDA-MB-231 = test: Apoptosis, Annexin V flow cytometry; assay type: cell-based; conditions: Homo sapiens; MDA-MB-231, Breast
How it was run: as §3

ML-2 = test: Apoptosis, Annexin V flow cytometry; assay type: cell-based; conditions: Homo sapiens; ML-2, AML
How it was run: as §3

MV4-11 = test: Apoptosis, Annexin V flow cytometry; assay type: cell-based; conditions: Homo sapiens; MV4-11, AML
How it was run: as §3

THP-1 = test: Apoptosis, Annexin V flow cytometry; assay type: cell-based; conditions: Homo sapiens, THP-1, THP-1, AML
How it was run: as §3

U2OS = test: Apoptosis, Annexin V flow cytometry; assay type: cell-based; conditions: Homo sapiens, Bone
How it was run: as §3

Kinetic solubility = assay type: physicochemical; conditions: pH 7.4
Method: (§4) ADME studies on compounds #33-11 and KH-4-43 for “absorption, distribution, metabolism, and excretion” were carried out at CRO, BioDuro. Kinetic solubility, plasma and microsome stability in rat, mouse and human, as well as Caco-2 Permeability were examined.

[3] = Mouse tolerance/toxicity study
E3 (CUL1) = E3 (CUL1) (Homo sapiens (Human), UniProt Q13616); test: E3 (CUL1) inhibition (Table 1); assay type: biochemical
Method: The reaction mixture (15 μl) was assembled onto a 384-well microtiter plate. […] ATP (0.66 mM) was then added to the mix followed by a brief centrifugation to settle down the mixture. The resulting plate was incubated at 30° C. in the Synergy-H1 reader and the fluorescence signal was monitored. Ubiquitination was quantified based on the ratio of acceptor:donor fluorescence (excitation 515 nm; donor emission 570 nm, acceptor emission 670 nm).

tumor cell lines = test: Cytotoxicity in a subset of tumor cell lines; assay type: cell-based
Method: Cells (5×10^4) were seeded 24 hours before compound treatment. Compound was added to the culture media and cells were cultured with the compound for 48 hours. The treated cells were then transferred into 5 ml flow cytometry tubes and the well was washed once with PBS to collect any remaining cells. The cells were then pelleted at 500×g for 5 min with a Beckman CS-6KR centrifuge at 4° C. After removal of supernatant, the cells pellet was washed with Annexin V binding buffer (10 mM Hepes-NaOH, pH 7.4, 150 mM NaCl, 5 mM KCl, 1 mM MgCl2, and 1.8 mM CaCl2). Cells were pelleted once again and incubated in the dark with Annexin V-FITC (2 μg/ml) in binding buffer for 5 min then analyzed using LSRFortessa flow cytometer (BD).
For cell viability assay, 10,000 cells (per well) were seeded in 96 well plates in 100 microliters of media and incubated overnight. Serial dilutions of compounds tested were then added to wells in triplicate. The cells were incubated for an additional 48 hours. […] The luminescence of each well was then read using a Synergy multi-mode plate reader (BioTek). For determining relative luminescence, the background (average reading of wells containing only media and CellTiter-Glo reagent, no cells) was first subtracted from the reading of each sample. […] Then EC50 was determined using the four parameter logistics regression standard curve.

[4] = Liver microsome stability; assay type: in vitro ADME
Method: as §4

[5] = In vitro stability in mouse, rat and human microsomes; assay type: in vitro ADME
Method: as §4

CRL1/SCF = CRL1/SCF (Homo sapiens, UniProt Q13616)

Chain of Nedd8-ROC1-CUL1 (Q13616 whole entry): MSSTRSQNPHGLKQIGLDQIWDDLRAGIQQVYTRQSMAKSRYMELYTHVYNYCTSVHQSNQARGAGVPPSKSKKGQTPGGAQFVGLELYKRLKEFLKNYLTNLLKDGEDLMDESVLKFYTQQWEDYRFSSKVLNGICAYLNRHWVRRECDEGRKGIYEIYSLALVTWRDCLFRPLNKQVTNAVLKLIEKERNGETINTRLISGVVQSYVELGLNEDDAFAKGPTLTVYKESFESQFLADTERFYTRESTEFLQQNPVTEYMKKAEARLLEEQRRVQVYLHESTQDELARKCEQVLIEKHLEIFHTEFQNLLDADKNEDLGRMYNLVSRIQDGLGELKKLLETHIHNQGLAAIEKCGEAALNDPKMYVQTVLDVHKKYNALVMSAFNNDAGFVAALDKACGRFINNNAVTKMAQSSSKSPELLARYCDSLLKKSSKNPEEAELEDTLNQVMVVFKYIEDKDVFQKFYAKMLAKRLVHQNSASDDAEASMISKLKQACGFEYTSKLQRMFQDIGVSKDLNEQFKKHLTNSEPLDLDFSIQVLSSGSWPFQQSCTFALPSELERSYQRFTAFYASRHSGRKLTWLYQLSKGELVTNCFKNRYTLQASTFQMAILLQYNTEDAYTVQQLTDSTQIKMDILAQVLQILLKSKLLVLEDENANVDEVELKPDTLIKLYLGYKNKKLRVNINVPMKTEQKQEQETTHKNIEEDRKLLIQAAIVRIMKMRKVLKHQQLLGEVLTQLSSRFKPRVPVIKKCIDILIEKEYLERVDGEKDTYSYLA
Chain of Nedd8-ROC1-CUL1 (P62877 whole entry partner): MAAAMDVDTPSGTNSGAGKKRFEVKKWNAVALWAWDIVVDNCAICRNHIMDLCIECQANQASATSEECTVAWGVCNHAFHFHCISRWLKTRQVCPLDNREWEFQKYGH
Chain of Nedd8-ROC1-CUL1 (Q15843 1-76 partner): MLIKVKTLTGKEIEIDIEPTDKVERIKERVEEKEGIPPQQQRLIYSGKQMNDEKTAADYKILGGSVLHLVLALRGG
Chain of Nedd8-ROC1-CUL4A (Q13619 39-759 limits assumed): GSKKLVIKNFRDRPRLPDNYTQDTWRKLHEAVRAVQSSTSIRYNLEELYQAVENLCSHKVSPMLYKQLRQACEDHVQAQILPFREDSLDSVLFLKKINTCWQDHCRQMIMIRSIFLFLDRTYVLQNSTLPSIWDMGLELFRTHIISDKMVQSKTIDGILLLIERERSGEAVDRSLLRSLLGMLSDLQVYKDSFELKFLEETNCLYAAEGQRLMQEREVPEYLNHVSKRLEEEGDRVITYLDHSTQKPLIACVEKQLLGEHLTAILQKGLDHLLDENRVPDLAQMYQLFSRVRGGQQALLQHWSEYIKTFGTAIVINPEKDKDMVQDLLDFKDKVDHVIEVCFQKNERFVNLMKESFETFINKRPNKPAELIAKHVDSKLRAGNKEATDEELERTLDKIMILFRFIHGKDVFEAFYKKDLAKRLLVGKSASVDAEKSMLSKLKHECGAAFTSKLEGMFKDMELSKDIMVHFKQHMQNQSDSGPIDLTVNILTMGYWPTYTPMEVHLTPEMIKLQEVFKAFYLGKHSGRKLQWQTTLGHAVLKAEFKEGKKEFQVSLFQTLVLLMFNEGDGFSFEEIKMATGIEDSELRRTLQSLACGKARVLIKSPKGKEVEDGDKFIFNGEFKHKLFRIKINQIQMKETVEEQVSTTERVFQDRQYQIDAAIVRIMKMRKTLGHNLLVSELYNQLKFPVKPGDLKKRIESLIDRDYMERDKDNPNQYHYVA
Chain of Nedd8-ROC1-CUL4A (P62877 15-108 partner limits assumed): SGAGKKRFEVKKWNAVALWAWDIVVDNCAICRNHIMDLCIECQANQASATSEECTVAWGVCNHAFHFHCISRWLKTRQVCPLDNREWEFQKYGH
Chain of Nedd8-ROC1-CUL4A (Q15843 1-76 partner limits assumed): as the sequence (Q15843 1-76 partner) above
Chain of ROC1-CUL2 (Q13617 whole entry): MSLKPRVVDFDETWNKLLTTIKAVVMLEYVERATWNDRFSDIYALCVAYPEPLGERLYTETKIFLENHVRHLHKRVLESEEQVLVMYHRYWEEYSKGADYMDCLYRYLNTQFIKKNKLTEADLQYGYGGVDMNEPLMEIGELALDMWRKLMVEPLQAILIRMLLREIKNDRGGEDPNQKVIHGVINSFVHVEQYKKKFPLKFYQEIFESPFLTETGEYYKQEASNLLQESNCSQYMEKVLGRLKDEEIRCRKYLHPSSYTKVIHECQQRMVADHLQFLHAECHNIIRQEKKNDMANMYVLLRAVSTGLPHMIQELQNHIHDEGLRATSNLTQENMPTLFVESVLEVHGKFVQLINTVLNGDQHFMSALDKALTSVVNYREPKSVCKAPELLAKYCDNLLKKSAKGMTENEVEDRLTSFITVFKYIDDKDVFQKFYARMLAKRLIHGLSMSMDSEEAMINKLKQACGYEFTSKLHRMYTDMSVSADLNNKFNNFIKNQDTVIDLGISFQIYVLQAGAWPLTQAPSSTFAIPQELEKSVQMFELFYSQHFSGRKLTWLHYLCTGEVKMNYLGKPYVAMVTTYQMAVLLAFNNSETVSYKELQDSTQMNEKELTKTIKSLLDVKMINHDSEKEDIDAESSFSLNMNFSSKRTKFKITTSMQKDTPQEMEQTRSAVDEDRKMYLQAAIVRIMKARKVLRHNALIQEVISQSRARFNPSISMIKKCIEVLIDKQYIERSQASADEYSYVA
Chain of ROC1-CUL2 (P62877 whole entry partner): as the sequence (P62877 whole entry partner) above
Chain of ROC1-CUL3 (Q13618 whole entry): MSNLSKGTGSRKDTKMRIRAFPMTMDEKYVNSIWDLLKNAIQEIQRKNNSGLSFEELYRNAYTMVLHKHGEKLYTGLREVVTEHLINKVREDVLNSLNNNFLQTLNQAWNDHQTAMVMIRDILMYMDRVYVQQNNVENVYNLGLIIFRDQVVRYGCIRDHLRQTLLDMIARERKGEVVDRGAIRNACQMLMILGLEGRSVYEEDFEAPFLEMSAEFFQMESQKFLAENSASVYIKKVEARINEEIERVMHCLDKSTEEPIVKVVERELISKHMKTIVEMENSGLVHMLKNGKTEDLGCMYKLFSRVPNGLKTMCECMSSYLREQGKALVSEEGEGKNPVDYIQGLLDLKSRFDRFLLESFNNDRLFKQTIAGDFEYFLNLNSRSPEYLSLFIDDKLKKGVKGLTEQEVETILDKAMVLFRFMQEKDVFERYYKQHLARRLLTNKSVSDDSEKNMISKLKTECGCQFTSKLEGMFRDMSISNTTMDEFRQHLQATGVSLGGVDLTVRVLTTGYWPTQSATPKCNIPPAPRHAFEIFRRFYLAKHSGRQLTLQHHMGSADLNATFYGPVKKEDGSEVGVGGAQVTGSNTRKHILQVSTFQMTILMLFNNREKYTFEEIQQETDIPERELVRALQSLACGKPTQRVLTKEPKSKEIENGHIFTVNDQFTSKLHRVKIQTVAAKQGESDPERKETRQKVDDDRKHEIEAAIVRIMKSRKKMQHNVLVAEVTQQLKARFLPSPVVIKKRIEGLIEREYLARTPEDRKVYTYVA
Chain of ROC1-CUL3 (P62877 whole entry partner): as the sequence (P62877 whole entry partner) above
Chain of E3 (CUL1) (Q13616 whole entry): as the sequence (Q13616 whole entry) above
Chain of E3 (CUL1) (P62877 whole entry partner): as the sequence (P62877 whole entry partner) above
Chain of ROC1-CUL1 (Q13616 whole entry): as the sequence (Q13616 whole entry) above
Chain of ROC1-CUL1 (P62877 whole entry partner): as the sequence (P62877 whole entry partner) above
Chain of ROC1-CUL4A CTD (Homo sapiens (Human), UniProt Q13619) (Q13619 400-759): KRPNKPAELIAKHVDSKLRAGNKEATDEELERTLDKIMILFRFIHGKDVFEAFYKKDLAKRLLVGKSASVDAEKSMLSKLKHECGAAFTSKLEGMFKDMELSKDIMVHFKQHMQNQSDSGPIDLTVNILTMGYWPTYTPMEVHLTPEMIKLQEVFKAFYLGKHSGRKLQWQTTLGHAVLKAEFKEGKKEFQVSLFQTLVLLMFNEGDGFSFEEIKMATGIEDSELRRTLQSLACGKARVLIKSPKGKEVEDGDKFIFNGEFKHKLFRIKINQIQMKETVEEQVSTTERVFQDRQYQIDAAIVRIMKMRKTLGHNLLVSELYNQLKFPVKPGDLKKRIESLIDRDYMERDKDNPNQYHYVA

For `O=c1c(-c2cnn(-c3ccccc3)c2)c(C(F)(F)F)oc2c(O)c(O)ccc12` [#33-11, 7,8-dihydroxy-3-(1-phenyl-1H-pyrazol-4-yl)-2-(trifluoromethyl)-4H-chromen-4-one], the “effect on levels of CUL1-32P-Ub” value (ROC1-CUL1) was “little effects”, the Kd (ROC1-CUL4A CTD [1]) was 0.223 µM and the “binding to ROC1-CUL4A CTD more effectively than ROC1-CUL1 CTD” value (ROC1-CUL4A CTD [2]) was roughly 20 fold. For the same compound, the “effect on Ub chain assembly” value (Nedd8-ROC1-CUL1; 1 mM) was “blocked the utilization of Ub”, the “effect on Ub chain assembly” value (Nedd8-ROC1-CUL1; 10 or 100 μM) was “little effect” and the “effect on Ub chain assembly” value (Nedd8-ROC1-CUL4A) was “block the utilization of free Ub”. The “level of di-Ub product” value (ROC1-CUL2) was “remained almost unchanged”, the “level of di-Ub product” value (ROC1-CUL3) was “remained almost unchanged” and the EC50 (H1299) was roughly 81 µM. It also gave an EC50 (K562) of roughly 54 µM, an EC50 (MDA-MB-231) greater than 100 µM and an EC50 (ML-2) of roughly 14 µM. It also gave an EC50 (MV4-11) of roughly 13 µM, an EC50 (THP-1) of 14 µM and an EC50 (U2OS) of roughly 78 µM. The “Kinetic solubility, rating” value (Kinetic solubility) was “moderate solubility”, the necropsy findings ([3]; 50 mg/kg) was “no adverse effects” and the body weight loss ([3]; 50 mg/kg IP daily, 7 days) was “no significant body weight loss”.

For `O=c1c(-c2cnn(-c3ccc(Cl)cc3)c2)c(C(F)(F)F)oc2c(O)c(O)ccc12` [KH-4-43, 3-(1-(4-chlorophenyl)-1H-pyrazol-4-yl)-7,8-dihydroxy-2-(trifluoromethyl)-4H-chromen-4-one], the EC50 (E3 (CUL1)) was 7 µM, the EC50 (tumor cell lines) was roughly 2 µM and the “Liver microsomes: t1/2” value ([4]; Human) was greater than 8.33 h. For the same compound, the “Liver microsomes: t1/2” value ([4]; Rat) was greater than 8.33 h, the half-life [5] was greater than 5 h and the “dose range inhibiting ubiquitination by CRL1/SCF” value (CRL1/SCF) was roughly 30 µM.

From US20240174649A1, “CULLIN-RING E3 UBIQUITIN LIGASE 4 INHIBITOR COMPOUNDS AND METHODS OF THEIR USE” (ICAHN SCHOOL OF MEDICINE AT MOUNT SINAI, priority 2021, published 2024)
